Experiments:
Experiment in all cases: combination Emax (second highest fraction inhibited in the dose matrix, 72 h); higher = more inhibition; extreme values may be limits of the assay
[1] = test system: NCI-H747 (Colorectal Carcinoma)
Procedure, shortened: (§1)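 Cell lines grown in DMEM/F12 or RPMI with 10% FBS were plated in 1536-well plates and held 24 hours at 37°C, 5% CO2 before 72 hours of exposure to two-drug dose matrices, with DMSO typically at 0.2%. CellTiter-Glo 2.0 luminescence gave viability, which was converted to inhibition. Vehicle wells were set to 0 and blank wells to 1. Combination Emax is the second-highest inhibition in the matrix, and Bliss excess is the observed combination effect minus the expected EA + EB − EA·EB, where EA and EB are the single-agent effects.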

[2] = test system: LoVo (Colorectal Carcinoma)
Procedure, shortened: as §1

[3] = test system: LB771-HNC (Head and Neck Carcinoma)
Procedure, shortened: as §1

[4] = test system: NCI-H69 (Small Cell Lung Carcinoma)
Procedure, shortened: as §1

[5] = test system: 8305C (Thyroid Gland Carcinoma)
Procedure, shortened: as §1

[6] = test system: SW1271 (Small Cell Lung Carcinoma)
Procedure, shortened: as §1

Mewo (Melanoma) = test system: Mewo (Melanoma)
Procedure, shortened: as §1

[7] = test system: HDLM-2 (Hodgkin's Lymphoma)
Procedure, shortened: as §1

[8] = test system: OVCAR-8 (Ovarian Carcinoma)
Procedure, shortened: as §1

NCI-H2795 (Mesothelioma) = test system: NCI-H2795 (Mesothelioma)
Procedure, shortened: as §1

[9] = test system: SU-DHL-6 (B-Cell Non-Hodgkin's Lymphoma)
Procedure, shortened: as §1

[10] = test system: K5 (Thyroid Gland Carcinoma)
Procedure, shortened: as §1

[11] = test system: KARPAS-231 (B-Cell Non-Hodgkin's Lymphoma)
Procedure, shortened: as §1

[12] = test system: LU-139 (Small Cell Lung Carcinoma)
Procedure, shortened: as §1

[13] = test system: RPMI-6666 (Non-Cancerous)
Procedure, shortened: as §1

[14] = test system: RT-112 (Bladder Carcinoma)
Procedure, shortened: as §1

[15] = test system: HO-1-u-1 (Oral Cavity Carcinoma)
Procedure, shortened: as §1

[16] = test system: MHH-PREB-1 (B-Cell Non-Hodgkin's Lymphoma)
Procedure, shortened: as §1

[17] = test system: Hs-633T (Other Solid Carcinomas)
Procedure, shortened: as §1

Row | SMILES | combination Emax [1] | combination Emax [2] | combination Emax [3] | combination Emax [4] | combination Emax [5] | combination Emax [6] | combination Emax (Mewo (Melanoma)) | combination Emax [7] | combination Emax [8] | combination Emax (NCI-H2795 (Mesothelioma)) | combination Emax [9] | combination Emax [10] | combination Emax [11] | combination Emax [12] | combination Emax [13] | combination Emax [14] | combination Emax [15] | combination Emax [16] | combination Emax [17]
1 | CN(C)CCCOc1ccc(-c2ccc3ncc4c(c3c2)n(C2CCOCC2)c(=O)n4C)cn1 [AZD0156] + O=C(c1cc(Cc2n[nH]c(=O)c3ccccc23)ccc1F)N1CCN(C(=O)C2CC2)CC1 [Olaparib] (first compound max 3 µM, partner max 3 µM) | 0.339 | 0.693 | 0.223 | 0.354 | 0.441 | 0.351 | 0.322 | 0.207 | 0.316 | 0.384 | 0.729 | 0.314 | 0.371 | 0.264 | 0.458 | 0.228 | 0.408 | 0.378 | 0.57
2 | C=CCn1c(=O)c2cnc(Nc3ccc(N4CCN(C)CC4)cc3)nc2n1-c1cccc(C(C)(C)O)n1 [AZD1775] + C1CN(CCC1(C(=O)N[C@@H](CCO)C2=CC=C(C=C2)Cl)N)C3=NC=NC4=C3C=CN4 [Capivasertib] (first compound max 3 µM, partner max 3 µM) | 0.623 | 0.937 | 0.696 | 0.83 | 0.681 | 0.682 | 0.589 | 0.769 | 0.812 | 0.408 | 0.994 | 0.603 | 1 | 0.733 | 0.921 | 0.836 | 0.913 | 0.812 | 0.897
3 | C=CCn1c(=O)c2cnc(Nc3ccc(N4CCN(C)CC4)cc3)nc2n1-c1cccc(C(C)(C)O)n1 [AZD1775] + CCc1c2c(nc3ccc(O)cc13)-c1cc3c(c(=O)n1C2)COC(=O)[C@]3(O)CC [SN-38] (first compound max 1 µM, partner max 0.3 µM) | – | 0.818 | – | 0.748 | 0.589 | 0.62 | 0.676 | 0.778 | – | 0.779 | 1 | 0.594 | – | 0.849 | 0.917 | 0.985 | 0.869 | – | 0.868
4 | COc1nnc2ccc(N3CCC(c4ccc(OCCN5CCN(C)C(=O)[C@H]5C)cc4)CC3)nn12 [AZD5153] + C=CCn1c(=O)c2cnc(Nc3ccc(N4CCN(C)CC4)cc3)nc2n1-c1cccc(C(C)(C)O)n1 [AZD1775] (first compound max 1 µM, partner max 1 µM) | 0.782 | 0.656 | 0.627 | 0.678 | 0.674 | 0.649 | 0.645 | 0.732 | 0.863 | 0.597 | 0.941 | 0.719 | 0.978 | 0.89 | 0.828 | 0.661 | 0.735 | 0.825 | 0.798
5 | COc1nnc2ccc(N3CCC(c4ccc(OCCN5CCN(C)C(=O)[C@H]5C)cc4)CC3)nn12 [AZD5153] + CC1(C)CCC(CN2CCN(c3ccc(C(=O)NS(=O)(=O)c4ccc(NCC5CCOCC5)c([N+](=O)[O-])c4)c(Oc4cnc5[nH]ccc5c4)c3)CC2)=C(c2ccc(Cl)cc2)C1 [Venetoclax] (first compound max 1 µM, 7x7, partner max 1 µM) | 0.702 | 0.464 | 0.481 | 0.636 | 0.524 | 0.57 | 0.563 | 0.612 | 0.661 | 0.465 | 1 | 0.668 | 1 | 0.948 | 0.764 | 0.239 | 0.55 | 0.481 | 0.564
6 | COc1nnc2ccc(N3CCC(c4ccc(OCCN5CCN(C)C(=O)[C@H]5C)cc4)CC3)nn12 [AZD5153] + CCN(CCO)CCCOc1ccc2c(Nc3cc(CC(=O)Nc4cccc(F)c4)[nH]n3)ncnc2c1 [AZD2811] (first compound max 1 µM, 7x7, partner max 1 µM) | 0.734 | 0.627 | 0.519 | 0.782 | 0.594 | 0.534 | 0.593 | 0.434 | 0.804 | 0.497 | 0.903 | 0.714 | 0.514 | 0.903 | 0.634 | 0.357 | 0.578 | 0.514 | 0.746
7 | COc1nnc2ccc(N3CCC(c4ccc(OCCN5CCN(C)C(=O)[C@H]5C)cc4)CC3)nn12 [AZD5153] + C[C@@H]1COCCN1C2=NC(=NC(=C2)C3(CC3)[S@](=N)(=O)C)C4=C5C=CNC5=NC=C4 [AZD6738] (first compound max 1 µM, 7x7, partner max 10 µM) | 0.809 | 0.814 | 0.739 | 0.735 | 0.674 | 0.57 | 0.604 | 0.525 | 0.924 | 0.801 | 0.968 | 0.788 | 0.752 | 0.947 | 0.834 | 0.737 | 0.89 | 0.893 | 0.912
8 | COc1nnc2ccc(N3CCC(c4ccc(OCCN5CCN(C)C(=O)[C@H]5C)cc4)CC3)nn12 [AZD5153] + Cc1c2c(nn1C)CSCc1cc(n(C)n1)CSc1cc(c3ccccc3c1)OCCCc1c(C(=O)O)n(C)c3c-2c(Cl)ccc13 [AZD5991] (first compound max 1 µM, 7x7, partner max 1 µM) | 0.734 | 0.545 | 0.915 | 0.507 | 0.545 | 0.512 | 0.719 | 0.987 | 0.905 | 0.864 | 1 | 0.678 | 0.941 | 0.91 | 0.804 | 0.922 | 0.561 | 0.461 | 0.631
9 | COc1nnc2ccc(N3CCC(c4ccc(OCCN5CCN(C)C(=O)[C@H]5C)cc4)CC3)nn12 [AZD5153] + Cn1cnc2c(F)c(Nc3ccc(Br)cc3Cl)c(C(=O)NOCCO)cc21 [Selumetinib] (first compound max 1 µM, 7x7, partner max 10 µM) | 0.937 | 0.862 | 0.475 | 0.543 | 0.576 | 0.676 | 0.663 | 0.393 | 0.759 | 0.853 | 0.913 | 0.845 | 0 | 0.912 | 0.692 | 0.436 | 0.558 | 0.459 | 0.748
10 | NC1(C(=O)N[C@@H](CCO)c2ccc(Cl)cc2)CCN(c2ncnc3[nH]ccc23)CC1 [Capivasertib] + CC(=O)c1c(C)c2cnc(Nc3ccc(N4CCNCC4)cn3)nc2n(C2CCCC2)c1=O [Palbociclib] (first compound max 10 µM, 7x7, partner max 10 µM) | 0.795 | 0.722 | 0.403 | 0.764 | 0.469 | 0.349 | 0.493 | 0.29 | 0.221 | 0.489 | 1 | 0.653 | 0.129 | 0.0872 | 0.675 | 0.415 | 0.806 | 0.502 | 0.707
11 | NC1(C(=O)N[C@@H](CCO)c2ccc(Cl)cc2)CCN(c2ncnc3[nH]ccc23)CC1 [Capivasertib] + CC(C)n1c(=O)n(C)c2cnc3cc(F)c(-c4ccc(OCCCN5CCCCC5)nc4)cc3c21 [AZD1390] (first compound max 10 µM, 7x7, partner max 0.3 µM) | 0.523 | 0.586 | 0.395 | 0.514 | 0.436 | 0.371 | 0.365 | 0.298 | 0.255 | 0.394 | 1 | 0.405 | 0.215 | 0.0539 | 0.715 | 0.255 | 0.746 | 0.21 | 0.258
12 | CS(=O)(=O)CCNCc1ccc(-c2ccc3ncnc(Nc4ccc(OCc5cccc(F)c5)c(Cl)c4)c3c2)o1 [Lapatinib] + Cn1cnc2c(F)c(Nc3ccc(Br)cc3Cl)c(C(=O)NOCCO)cc21 [Selumetinib] (first compound max 10 µM, 7x7, partner max 10 µM) | – | 0.742 | – | 0.425 | 0.542 | 0.646 | 0.503 | 0.372 | – | 0.893 | 0.974 | 0.597 | – | 0.161 | 0.462 | 0.486 | 0.789 | – | 0.478
13 | CS(=O)(=O)CCNCc1ccc(-c2ccc3ncnc(Nc4ccc(OCc5cccc(F)c5)c(Cl)c4)c3c2)o1 [Lapatinib] + NC1(c2ccc(-c3nc4ccn5c(=O)[nH]nc5c4cc3-c3ccccc3)cc2)CCC1 [MK-2206] (first compound max 10 µM, 7x7, partner max 10 µM) | 0.898 | 0.713 | – | 0.956 | 0.929 | 0.739 | 0.521 | 0.625 | – | 0.948 | 1 | 0.95 | – | 0.672 | 0.766 | 0.917 | 0.943 | – | 0.905
14 | Cc1nc(-c2cn3c(n2)-c2ccc(-c4cnn(C(C)(C)C(N)=O)c4)cc2OCC3)n(C(C)C)n1 [Taselisib] + O=C(Nc1ccc2[nH]nc(-c3ccncc3)c2c1)[C@@H]1CCN(CC(=O)N2CCN(c3ccc(-c4ncccn4)cc3)CC2)C1 [SCH772984] (first compound max 10 µM, 7x7, partner max 5 µM) | – | 0.738 | – | 0.716 | 0.843 | 0.531 | 0.777 | 0.345 | – | 1 | 1 | 0.954 | – | 0.154 | 0.716 | 0.802 | 0.933 | – | 0.834

Source: the supplement of paper PMC11061612
